Measurements: patent US20240009314A1, “COMPOSITIONS AND METHODS FOR TARGETING TUMOR-ASSOCIATED MACROPHAGES” (Resolute Science, priority 2020, published 2024)

Columns and labels:
[1] = tested on: MC38 tumor cells; assay: Anti-tumor activity in MC38 colon cancer mouse model; format: in vivo; conditions: 40 mg/kg intraperitoneally q3 days×4
Protocol: Specifically, 8- to 12-week-old C57BL/6 female mice (Charles River Laboratories) were inoculated with 5×10^5 MC38 tumor cells in 0% Matrigel subcutaneously in the flank in a volume of 0.1 mL/mouse on Study Day 0. A pair match was performed when the tumors reached an average size of 80-120 mm 3 at which time treatment began.
The dosing volume was adjusted for body weight. Gemcitabine was administered at a dosage of 40 mg/kg and delivered intraperitoneally q3 days×4. Tumor was measured by calipers twice a week. Body weight was measured every day for 5 days and then bi-weekly to the end of the study. (n=10/group). The endpoint of study was when tumor volume reached 1500 mm^3.

[2] = tested on: GL261 cells; assay: Anti-tumor activity in immunocompetent GL261 glioma mouse model; format: in vivo
Protocol: The anti-tumor activity of Target-5 was assessed in vivo using an immunocompetent glioma mouse model. Three distinct doses of Target-5 were evaluated against Temozolomide, an FDA-approved chemotherapeutic agent, and a vehicle control in C57BL/6 mice.
Specifically, female C57BL/6 mice (Jackson Laboratories) were inoculated with 5×10^6 GL261 cells (mycoplasma tested-negative) with 96% viability and 100% tumor take rate (cell passages prior to plating (#7)).
Target-5 was formulated in 0.9% saline and the mice were treated twice a week with either 5 mg/kg, 7.5 mg/kg, or 10 mg/kg Target-5 by tail vein injection. The dosing volume was adjusted for body weight. Temozolomide was formulated in 10% DMSO in 0.9% sodium chloride and mice were treated twice a week by gavage at a dosage of 12.5 mg/kg. n=10 for each group.

## Nc1ccn([C@@H]2O[C@H](CO)[C@@H](O)C2(F)F)c(=O)n1 [Gemcitabine]
[1]
  tumor volume compared to Target-5 groups: appeared to reduce tumor volume more

## Cn1nnc2c(C(N)=O)ncn2c1=O [temozolomide]
[2]; any treatment group, FIG. 8C
  change in body weight: no significant change
[2]; day 21, 12.5 mg/kg twice a week by gavage
  Mean tumor volume: 302.6 mm^3
